For one experiment, the target named is T1, IKZF2 (Homo sapiens, UniProt Q96SW2+Q9UKS7).
T1 construct: endogenously expressing IKZF2 with HiBiT fusion tag via CRISPR; host or cells: JURKAT.21 (IKZF2-HiBiT), CRISPR knock-in
Kind of experiment: IKZF2 degradation assay, HiBiT method (Nano-Glo HiBiT Lytic Assay). Conditions: JURKAT.21 (IKZF2-HiBiT) cells. The class given is cell-based. From the text:
Example 61 IKZF2 Degradation Assay
RPMI 1640 Medium without phenol red and fetal bovine serum (FBS) were purchased from Gibco (Grand Island, NY, USA). Nano-Glo® HiBiT Lytic Assay System was purchased from Promega (Madison, WI, USA). JURKAT.21 (IKZF2-HiBiT) cell line, endogenously expressing IKZF2 with HiBiT fusion tag via CRISPR, was purchasing from Synthego (Menlo Park, CA, USA). Cell culture flasks and 384-well microplates were acquired from VWR (Radnor, PA, USA).
IKZF2 Degradation Analysis
(§1) IKZF2 degradation was determined based on quantification of luminescent signal using Nano-Glo® HiBiT Lytic Assay kit. Test compounds were added to the 384-well plate from a top concentration of 10 µM with 11 points, half log titration in duplicates. JURKAT.216 cells were added into 384-well plates at a cell density of 5000 cells per well. The plates were kept at 37° C. with 5% CO2 for 6 or 24 hours. The cells treated in the absence of the test compound were the negative control and the cells without Nano-Glo® HiBiT Lytic reagent were the positive control. After 6-hour or 24-hour incubation, Nano-Glo® HiBiT Lytic Assay reagents were added to the cells. Luminescence was acquired on EnVision™ Multilabel Reader (PerkinElmer, Santa Clara, CA, USA).

The next experiment concerns the target T2, GSPT1 (Homo sapiens, UniProt P15170+Q96SW2).
T2 construct: endogenously expressing GSPT1 with HiBiT fusion tag via CRISPR; endogenous in cells; host or cells: 293T.114 (HiBiT-GSPT1), CRISPR knock-in, generated in house
Description: GSPT1 degradation assay, HiBiT method (Nano-Glo HiBiT Lytic Assay). In kind it is cell-based. The conditions noted are these: 293T.114 (HiBiT-GSPT1) cells, 6 hours. How it is done:
Example 62 GSPT1 Degradation Assay
DMEM no-phenol red medium and fetal bovine serum (FBS) were purchased from Gibco (Grand Island, NY, USA). Nano-Glo® HiBiT Lytic Assay System was purchased from Promega (Madison, WI, USA). 293T.114 (HiBiT-GSPT1) cell line was generated in house, endogenously expressing GSPT1 with HiBiT fusion tag via CRISPR. Cell culture flasks and 384-well microplates were acquired from VWR (Radnor, PA, USA).
GSPT1 Degradation Analysis
as §1, with “GSPT1” for “IKZF2”, “293T.114” for “JURKAT.216”, “6000” for “5000”, “6” for “6 or 24”, “6-hour” for “6-hour or 24-hour”, “designated wells.” for “cells.”

[1] abbreviates: 6 hours, read-out: HiBiT-Degradation JURKAT.21 IKZF2 6 hours DC50.
The mark [2] stands for this setting: 6 hours, read-out: HiBiT-Degradation JURKAT.21 IKZF2 6 hours Emax.
Setting [3] is: 24 hours, read-out: HiBiT-Degradation JURKAT.21 IKZF2 24 hours DC50.
The mark [4] stands for this setting: 24 hours, read-out: HiBiT-Degradation JURKAT.21 IKZF2 24 hours Emax.

Molecules are shown by their SMILES. Like-named read-outs stand apart in the source and are kept apart here.

T1 sequence (Q9UKS7 whole entry, the tested form may be a part): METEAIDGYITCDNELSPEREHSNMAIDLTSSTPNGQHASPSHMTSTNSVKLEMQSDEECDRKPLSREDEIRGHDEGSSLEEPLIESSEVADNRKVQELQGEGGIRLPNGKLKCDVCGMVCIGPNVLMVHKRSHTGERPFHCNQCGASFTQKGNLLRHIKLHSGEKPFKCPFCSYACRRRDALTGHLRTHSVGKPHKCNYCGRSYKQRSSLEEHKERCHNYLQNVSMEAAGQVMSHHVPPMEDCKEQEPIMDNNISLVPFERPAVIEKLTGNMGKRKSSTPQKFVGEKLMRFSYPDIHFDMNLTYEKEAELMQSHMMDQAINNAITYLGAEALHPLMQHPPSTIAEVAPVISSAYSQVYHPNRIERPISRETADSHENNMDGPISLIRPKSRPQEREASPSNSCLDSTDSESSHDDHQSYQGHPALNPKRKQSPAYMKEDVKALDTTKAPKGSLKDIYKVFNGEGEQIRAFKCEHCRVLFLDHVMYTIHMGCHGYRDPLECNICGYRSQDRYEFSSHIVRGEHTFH
T1 sequence (Q96SW2 whole entry, the tested form may be a part): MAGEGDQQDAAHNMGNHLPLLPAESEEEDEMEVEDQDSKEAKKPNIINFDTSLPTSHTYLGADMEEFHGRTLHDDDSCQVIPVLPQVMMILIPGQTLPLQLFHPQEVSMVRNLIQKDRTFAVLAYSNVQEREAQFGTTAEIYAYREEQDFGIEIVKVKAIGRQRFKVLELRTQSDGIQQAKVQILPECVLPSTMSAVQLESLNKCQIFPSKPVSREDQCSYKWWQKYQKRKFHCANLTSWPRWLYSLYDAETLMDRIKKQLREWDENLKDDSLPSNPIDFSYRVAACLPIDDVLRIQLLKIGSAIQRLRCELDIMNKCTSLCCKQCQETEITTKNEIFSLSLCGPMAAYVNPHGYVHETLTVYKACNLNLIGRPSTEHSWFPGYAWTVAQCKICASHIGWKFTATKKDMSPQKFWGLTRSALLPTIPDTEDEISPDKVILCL
T1 sequence (Q16531 whole entry partner, the tested form may be a part): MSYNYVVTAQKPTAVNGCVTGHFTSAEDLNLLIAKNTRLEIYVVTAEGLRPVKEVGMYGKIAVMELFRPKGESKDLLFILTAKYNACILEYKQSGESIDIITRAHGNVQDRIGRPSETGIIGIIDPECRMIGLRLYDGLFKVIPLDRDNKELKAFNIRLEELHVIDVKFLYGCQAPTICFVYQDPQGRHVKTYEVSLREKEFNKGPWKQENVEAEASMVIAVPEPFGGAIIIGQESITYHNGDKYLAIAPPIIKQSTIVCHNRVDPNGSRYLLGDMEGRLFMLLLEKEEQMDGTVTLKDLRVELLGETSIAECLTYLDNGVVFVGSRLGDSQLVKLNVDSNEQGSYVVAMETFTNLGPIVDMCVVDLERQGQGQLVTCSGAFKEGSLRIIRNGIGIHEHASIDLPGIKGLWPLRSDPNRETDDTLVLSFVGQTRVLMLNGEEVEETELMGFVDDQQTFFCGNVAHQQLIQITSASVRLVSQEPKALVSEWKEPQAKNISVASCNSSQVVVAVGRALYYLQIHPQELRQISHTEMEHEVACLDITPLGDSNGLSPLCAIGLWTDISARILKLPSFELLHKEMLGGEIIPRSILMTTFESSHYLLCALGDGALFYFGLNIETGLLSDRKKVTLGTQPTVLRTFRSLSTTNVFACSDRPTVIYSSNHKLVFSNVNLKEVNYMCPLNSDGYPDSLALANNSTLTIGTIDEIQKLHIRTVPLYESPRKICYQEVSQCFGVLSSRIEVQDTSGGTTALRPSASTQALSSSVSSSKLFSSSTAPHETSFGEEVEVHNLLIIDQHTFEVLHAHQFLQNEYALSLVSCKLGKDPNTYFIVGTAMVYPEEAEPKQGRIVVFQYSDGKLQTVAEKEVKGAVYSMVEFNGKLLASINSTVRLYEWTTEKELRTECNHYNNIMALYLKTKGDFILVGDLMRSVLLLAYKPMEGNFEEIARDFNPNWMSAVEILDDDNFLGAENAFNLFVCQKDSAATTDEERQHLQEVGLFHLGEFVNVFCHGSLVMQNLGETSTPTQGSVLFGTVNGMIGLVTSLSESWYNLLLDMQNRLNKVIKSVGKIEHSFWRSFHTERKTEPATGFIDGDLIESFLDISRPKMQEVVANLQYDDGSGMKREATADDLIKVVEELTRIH
T2 sequence (P15170 whole entry, the tested form may be a part): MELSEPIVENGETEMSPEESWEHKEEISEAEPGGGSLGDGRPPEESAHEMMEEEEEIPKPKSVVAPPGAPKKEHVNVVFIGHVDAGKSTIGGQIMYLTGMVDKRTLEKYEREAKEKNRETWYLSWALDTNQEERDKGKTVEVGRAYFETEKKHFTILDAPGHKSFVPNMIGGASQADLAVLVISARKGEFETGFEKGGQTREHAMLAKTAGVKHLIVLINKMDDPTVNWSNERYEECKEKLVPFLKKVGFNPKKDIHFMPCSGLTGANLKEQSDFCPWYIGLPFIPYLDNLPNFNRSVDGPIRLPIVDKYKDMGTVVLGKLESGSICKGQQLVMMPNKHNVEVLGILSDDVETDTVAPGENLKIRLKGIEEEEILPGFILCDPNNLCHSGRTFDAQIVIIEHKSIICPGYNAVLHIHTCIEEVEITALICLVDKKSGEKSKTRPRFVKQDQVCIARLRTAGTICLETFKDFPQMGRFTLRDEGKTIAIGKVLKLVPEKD
T2 sequence (Q96SW2 whole entry, the tested form may be a part): as the sequence (Q96SW2 whole entry, the tested form may be a part) above
T2 sequence (Q16531 whole entry partner, the tested form may be a part): as the sequence (Q16531 whole entry partner, the tested form may be a part) above

Regarding `O=C1CCC(N2C(=O)c3ccc(OC4CCCC[C@@H]4N4CC(Oc5cccc(F)c5)C4)c4cccc2c34)C(=O)N1` (stereo in doubt) [Compound 117, 3-[5-[(1R)-2-[3-(3-fluorophenoxy)azetidin-1-yl]cyclohexoxy]-2-oxo-benzo[cd]indol-1-yl]piperidine-2,6-dione], the DC50 at IKZF2 (setting [1]) was over 10 µM. On IKZF2 (setting [2]), the Emax was 60 to 95%.
Take `O=C1CCC(N2C(=O)c3ccc(C4(F)CCN(Cc5ccccc5)CC4)c4cccc2c34)C(=O)N1` (stereo not drawn) [Compound 96, 3-[5-(1-benzyl-4-fluoro-4-piperidyl)-2-oxo-benzo[cd]indol-1-yl]piperidine-2,6-dione]: the DC50 at IKZF2 (setting [1]) and at GSPT1 was over 10 µM in each case. The maximal response (Emax) on IKZF2 (setting [2]) and on GSPT1 was 60 to 95% in each case.
In the case of `CN1CCC(F)(c2ccc3c4c(cccc24)N(C2CCC(=O)NC2=O)C3=O)CC1` (stereo not drawn) [Compound 97], the DC50 at IKZF2 (setting [1]) and on GSPT1 was over 10 µM each time. Further, the Emax on IKZF2 (setting [2]) and on GSPT1 was 60 to 95% throughout.
With `CN1CCC(c2ccc3c4c(cccc24)N(C2CCC(=O)NC2=O)C3=O)C1` (stereo not drawn) [Compound 98, 3-[5-(1-methylpyrrolidin-3-yl)-2-oxo-benzo[cd]indol-1-yl]piperidine-2,6-dione], the 50% degradation concentration (DC50) on IKZF2 (setting [1]) and at GSPT1 was over 10 µM throughout. In addition, the figures for the maximum response (Emax) at IKZF2 (setting [2]) and on GSPT1 were 60 to 95% and over 95%, respectively.
For `O=C1CCC(N2C(=O)c3ccc(C4CCN(Cc5ccccc5)C4)c4cccc2c34)C(=O)N1` (stereo not drawn) [Compound 99], the 50% degradation concentration (DC50) at IKZF2 (setting [1]) and at GSPT1 was over 10 µM throughout. In addition, the Emax is 60 to 95% on IKZF2 (setting [2]) and over 95% on GSPT1.
With `O=C1CCC(N2C(=O)c3ccc(C4(F)CN(Cc5ccccc5)C4)c4cccc2c34)C(=O)N1` (stereo not drawn) [Compound 100, 3-[5-(1-benzyl-3-fluoro-azetidin-3-yl)-2-oxo-benzo[cd]indol-1-yl]piperidine-2,6-dione], the DC50 on IKZF2 (setting [1]) and on GSPT1 was over 10 µM in each case. Besides, the maximum response (Emax) is 60 to 95% on IKZF2 (setting [2]) and over 95% on GSPT1.
Regarding `CN1CC(F)(c2ccc3c4c(cccc24)N(C2CCC(=O)NC2=O)C3=O)C1` (stereo not drawn) [Compound 101], the DC50 on IKZF2 (setting [1]) and at GSPT1 was over 10 µM in each case. Also, the maximal effect (Emax) on IKZF2 (setting [2]) was 60 to 95%; on GSPT1, over 95%.
`CN1CC(c2ccc3c4c(cccc24)N(C2CCC(=O)NC2=O)C3=O)C1` (stereo not drawn) [Compound 102, 3-[5-(1-methylazetidin-3-yl)-2-oxo-benzo[cd]indol-1-yl]piperidine-2,6-dione]: the DC50 on IKZF2 (setting [1]), at IKZF2 (setting [3]) and on GSPT1 was over 10 µM in each case. For the same molecule, the maximal effect (Emax) at IKZF2 (setting [2]), on IKZF2 (setting [4]) and on GSPT1 was 60 to 95% throughout.
Consider `O=C1CCC(N2C(=O)c3ccc(CC4CN(Cc5ccccc5)C4)c4cccc2c34)C(=O)N1` (stereo not drawn) [Compound 103, 3-[5-[(1-benzylazetidin-3-yl)methyl]-2-oxo-benzo[cd]indol-1-yl]piperidine-2,6-dione], for which the 50% degradation concentration (DC50) on IKZF2 (setting [1]) and on GSPT1 was over 10 µM in each case. Besides, the maximal response (Emax) on IKZF2 (setting [2]) and at GSPT1 was 60 to 95% in each case.
In the case of `CC(C)(C)OC(=O)N1CC(Cc2ccc3c4c(cccc24)N(C2CCC(=O)NC2=O)C3=O)C1` (stereo not drawn) [Compound 104, Tert-butyl 3-[[1-(2,6-dioxo-3-piperidyl)-2-oxo-benzo[cd]indol-5-yl]methyl]azetidine-1-carboxylate], the half-maximal degradation concentration (DC50) on IKZF2 (setting [1]) and on GSPT1 was over 10 µM throughout. Also, the Emax at IKZF2 (setting [2]) and on GSPT1 was 60 to 95% each time.
Regarding `CN1CC(Cc2ccc3c4c(cccc24)N(C2CCC(=O)NC2=O)C3=O)C1` (stereo not drawn) [Compound 105, 3-[5-[(1-methylazetidin-3-yl)methyl]-2-oxo-benzo[cd]indol-1-yl]piperidine-2,6-dione], the DC50 on IKZF2 (setting [1]) and at GSPT1 was over 10 µM throughout. In addition, the Emax is 60 to 95% at IKZF2 (setting [2]) and over 95% on GSPT1.
On to `Cc1cc(C)nc(-c2ccc3c4c(cccc24)N(C2CCC(=O)NC2=O)C3=O)n1` (stereo not drawn) [Compound 106, 3-[5-(4,6-dimethylpyrimidin-2-yl)-2-oxo-benzo[cd]indol-1-yl]piperidine-2,6-dione], for which the DC50 at IKZF2 (setting [1]) was under 0.5 µM; on IKZF2 (setting [3]), under 0.5 µM; at GSPT1, over 10 µM. In addition, the Emax on IKZF2 (setting [2]) was 45 to 60%; at IKZF2 (setting [4]), under 45%; on GSPT1, 60 to 95%.
As to `CC(NC(=O)c1ccc2c3c(cccc13)N(C1CCC(=O)NC1=O)C2=O)c1ccccc1` (stereo not drawn) [Compound 107, 1-(2,6-dioxo-3-piperidyl)-2-oxo-N-(1-phenylethyl)benzo[cd]indole-5-carboxamide], the half-maximal degradation concentration (DC50) at IKZF2 (setting [1]) and on GSPT1 was over 10 µM throughout. Also, the Emax at IKZF2 (setting [2]) and on GSPT1 was 60 to 95% in each case.
At GSPT1, `COc1ccccc1C(C)NC(=O)c1ccc2c3c(cccc13)N(C1CCC(=O)NC1=O)C2=O` (stereo not drawn) [Compound 109, 1-(2,6-dioxopiperidin-3-yl)-N-(1-(2-methoxyphenyl)ethyl)-2-oxo-1,2-dihydrobenzo[cd]indole-5-carboxamide] had a DC50 of over 10 µM and an Emax of 60 to 95%.
For `O=C1CCC(N2C(=O)c3ccc(C(=O)NC(c4ccccc4)C(F)(F)F)c4cccc2c34)C(=O)N1` (stereo not drawn) [Compound 110, 1-(2,6-dioxopiperidin-3-yl)-2-oxo-N-(2,2,2-trifluoro-1-phenylethyl)-1,2-dihydrobenzo[cd]indole-5-carboxamide], the half-maximal degradation concentration (DC50) on IKZF2 (setting [1]) was over 10 µM. At IKZF2 (setting [2]), the maximum response (Emax) is 60 to 95%.
As for `CC(C)NC(=O)c1ccc2c3c(cccc13)N(C1CCC(=O)NC1=O)C2=O` (stereo not drawn) [Compound 112, 1-(2,6-dioxopiperidin-3-yl)-N-isopropyl-2-oxo-1,2-dihydrobenzo[cd]indole-5-carboxamide], the DC50 at IKZF2 (setting [1]) and at GSPT1 was over 10 µM in each case. For the same molecule, the maximal response (Emax) on IKZF2 (setting [2]) and on GSPT1 was 60 to 95% throughout.
For the molecule `CN1CCN(c2ccc3c4c(cccc24)N(C2CCC(=O)NC2=O)C3=O)CC1` (stereo not drawn) [Compound 114, 3-[5-(4-methylpiperazin-1-yl)-2-oxo-benzo[cd]indol-1-yl]piperidine-2,6-dione], at GSPT1, the DC50 was over 10 µM and the maximal effect (Emax) lay in the range of 60 to 95%.
Consider `O=C1CCC(N2C(=O)c3ccc(N4CCN(Cc5ccccc5)CC4)c4cccc2c34)C(=O)N1` (stereo not drawn) [Compound 115], for which, on IKZF2 (setting [1]), the DC50 is over 10 µM. On IKZF2 (setting [2]), the Emax lay within 60 to 95%.
Regarding `CN(c1ccc2c3c(cccc13)N(C1CCC(=O)NC1=O)C2=O)C1CCN(Cc2ccccc2)C1` (stereo not drawn) [Compound 116], at GSPT1, the DC50 is over 10 µM and the Emax is 60 to 95%.
Consider `O=C1CCC(N2C(=O)c3ccc(C4(F)CCN(Cc5ccccc5)CC4)c4nccc2c34)C(=O)N1` (stereo not drawn) [Compound 123, 3-[18-(1-benzyl-4-fluoro-4-piperidyl)-24-oxo-27,30-diazatricyclododeca-5(17),6(18),7(19),8(27),20-pentaen-30-yl]piperidine-2,6-dione], for which, on GSPT1, the DC50 was over 10 µM and the maximal response (Emax) is 60 to 95%.
As to `O=C1CCC(N2C(=O)c3ccc(C4CCN(Cc5ccccc5)CC4)c4nccc2c34)C(=O)N1` (stereo not drawn) [Compound 126, 3-[17-(1-benzyl-4-piperidyl)-25-oxo-27,30-diazatricyclododeca-5(17),6(18),7(19),8(27),20-pentaen-30-yl]piperidine-2,6-dione], the half-maximal degradation concentration (DC50) at IKZF2 (setting [1]) was over 10 µM. In addition, the Emax at IKZF2 (setting [2]) lay in the range of 60 to 95%.
